The values that follow come from patent US10336746B1, “RAD51 inhibitors” (Cyteir Therapeutics, Inc., priority 2017, dated 2019).

Like-named read-outs stand apart in the source and are kept apart here.

Data set [1] relates to Daudi cell line (AID positive). Kind of data set: Primary screening cell killing assay, Daudi cell line (AID positive). The note with it: Homo sapiens, 168 h, cell death on Day 7, Cell-Titer Glo. The format is cell-based. The protocol: (§1) Primary screening was a phenotypic screen that utilized the synthetic lethal interaction between AID and RAD51 to identify compounds that were both potent and on target. AID expressing cells are dependent upon RAD51 for survival; inhibiting RAD51 in AID positive cells results in a cytotoxic effect.
The first step was to set up a cell killing assay in the Daudi cell line (AID positive). A 96 well u-bottom plate was prepared by writing the experiment number, plate number, date and initials in the top right corner of the plate lid. With a sterile 300 ml reservoir, and 25 ml serological pipette, evaporation buffer media was pipetted into reservoir in 25 ml increments. Using the liquid handler, 150 ul of evaporation buffer media was pipetted from reservoir into rows A and H, and Columns 1 and 12 of the 96 well u-bottom plate. Cell cultures were counted to obtain the density of cells per ml, and the culture viability. The cell density information was used to obtain 1,000,000 cells from culture using a 5 mL serological pipette into an epi tube. The cell density information from the culture was used to calculate the number of cells and volume of media needed for the assay to seed 1250 cells in 130 ul of media per available culture well in the 96 well u-bottom plate. Rows B through F were used for cells (50 wells in total), with row G left for an empty media control. The calculation was overestimated by 10 mL to account for the dead volume in the 300 ml reservoir. Once the media volume was calculated, the appropriate volume of media was pipetted in 25 mL increments into the 250 mL bottle using a 25 mL serological pipette. The 250 ml bottle was capped tightly, and placed into a 37° C. water bath for 2 minutes. While the culture media was warming, 10 mL of fresh media was pipetted from the 500 mL culture media bottle into a sterile 25 mL reservoir. Using the Eppendorf multichannel pipette, 130 ul of media was pipetted from the 25 mL reservoir into row G of the 96 well u-bottom plate. Once the 250 mL bottle of media was warmed, the volume of culture needed was pipetted into the bottle, and mixed gently with a 25 mL serological pipette as to not create bubbles, and then the contents of the bottle were pipetted into a new 300 mL reservoir. Using the liquid handler, 130 ul of culture was pipetted from the 300 mL reservoir into rows B through F of the 96 well u-bottom plate. Once the culture was added, the plate was placed into a 37° C. incubator until the compound master plate was prepared for use.
Two 96 well u-bottom plates were prepared by writing the master plate name in the upper right corner of the plate lid. Labeling one DMSO master and the other Media Master. The compounds of interest were obtained from the laboratory freezer, and placed into a 25 well storage box with a lid, and set the box aside. The compounds were vortexed after thawing but before use. Using an automatic multichannel pipette, 20 ul of 100% DMSO was pipetted into wells B3-B11 through G3-G11 of the DMSO master plate. For each compound on the master plate, 50 ul of the compound were pipetted in the appropriate well of row 2 (reference plate map to determine appropriate well). A serial dilution was prepared beginning by aspirating 20 ul from row 2 and mixing with row 3, repeating until row 11 was reached. Using the liquid handler, 194 ul of Daudi media was dispensed into wells B2-B11 through G2-G11 of the Media master plate. Using the liquid handler, 6 ul from the DMSO master plate was aspirated and dispensed into the media master plate, mixing 100 ul twice.
Compounds from master plate were then added to the culture plate. The culture plates were removed from the incubator, and set inside the biosafety cabinet. Using a liquid handler, 20 ul from wells B2 to B11 through G2 to G11 of master plate were aspirated, and dispensed into wells B2 to B11 through G2 to G11 of culture plate. This set was continued with each culture plate. […]

In data set [2] the test system is WI-38 cells (AID negative). The experiment in a line: Primary screening cell killing assay repeated in WI-38 cells (AID negative). The format is cell-based. The note with it: Homo sapiens, 168 h, cell death on Day 7, Cell-Titer Glo. Here is the method: as §1
Percent cell death and EC50 values were calculated by comparing the cell viability of the compound treated wells to the non-treated wells. Normalized RLU values were obtained by subtracting the media well values from each of the wells in the same column, and then dividing that value by the DMSO treated cells values. The percent kill was then calculated by subtracting the normalized RLU value from 1 and multiplying by 100. The average normalized percent kill value and standard error of the mean was then calculated. The kill values were then inputted into Prism with the corresponding standard errors. In Prism a non-linear regression line was plotted with the data points using a semi-log scale, and the EC50 value was calculated.

The nature of data set [3]: Bi-directional Caco-2 permeability. The format is in vitro ADME. The following applies: human; for efflux ratio at 90 min: Caco-2, read-out: BA/AB Ratio; for Papp A→B at 90 min: Caco-2, apical to basolateral, read-out: AB Papp (cm/sec × 10^6); for Papp A→B at 90 min / Papp B→A at 90 min: 37 C, up to 90 minutes; for Papp B→A at 90 min: Caco-2, basolateral to apical, read-out: BA Papp (cm/sec × 10^6). Here is the method:
Bi-directional Caco-2 permeability was assayed. Caco-2 cells were seeded onto permeable polycarbonate supports and allowed to differentiate for about 3 weeks prior to being used in the assays. The cells were then exposed to the compounds from either the apical or basolateral sides and incubated at 37 C for up to 90 minutes under light agitation. Compound transport was then measured using LC/MS/MS analysis at 30, 60, and 90 minutes.
Background: Passage across Caco-2 layers is used to estimate intestinal permeability.

The mark [4] stands for this setting: Caco-2, Caco-2, AB direction, read-out: AB Recovery %.
The mark [5] stands for this setting: Caco-2, Caco-2, BA direction, read-out: BA Recovery %.

In the case of `CC(C)NC(=O)OC1CCN(c2ncc(-c3ccc(NC(=O)NCc4ccccc4)cc3S(=O)(=O)NC(C)(C)C)s2)CC1` [Ex. 3, [1-[5-[4-(benzylcarbamoylamino)-2-(tert-butylsulfamoyl)phenyl]thiazol-2-yl]-4-piperidyl] N-isopropylcarbamate], the EC50 was at most 100 nM in data set [1] and above 1000 nM in data set [2].
Consider `CC(C)OC(=O)N1CCC(c2ncc(-c3ccc(NC(=O)NCc4ccccn4)cc3S(=O)(=O)NC(C)(C)C)s2)CC1` [Ex. 4, isopropyl 4-[5-[2-(tert-butylsulfamoyl)-4-(2-pyridylmethylcarbamoylamino)phenyl]thiazol-2-yl]piperidine-1-carboxylate], for which the EC50 in data set [1] and in data set [2] was above 1000 nM each time.
For `CC(C)OC(=O)Nc1ccc(-c2cnc(N3CCN(C(=O)OC(C)C)CC3)s2)c(S(=O)(=O)NC(C)(C)C)c1` [Ex. 5, isopropyl 4-[5-[2-(tert-butylsulfamoyl)-4-(isopropoxycarbonylamino)phenyl]thiazol-2-yl]piperazine-1-carboxylate], the EC50 in data set [1] is above 1000 nM. Further, in data set [3] (setting [4]), the recovery at 90 min worked out at 34.7%. Moreover, the recovery at 90 min in data set [3] (setting [5]) came out at 80.8%. Further, in data set [3], the efflux ratio at 90 min is 0.4, the Papp A→B at 90 min is 5.9 ×10⁻⁶ cm/s and the Papp B→A at 90 min was determined as 2.2 ×10⁻⁶ cm/s.
As to `CC(C)OC(=O)Nc1ccc(-c2cnc([C@H]3CC[C@H](NC(=O)OC4CCCC4)CC3)s2)c(S(=O)(=O)NC(C)(C)C)c1` [Ex. 7, trans-isopropyl N-[3-(tert-butylsulfamoyl)-4-[2-[4-(cyclopentoxycarbonylamino)cyclohexyl]thiazol-5-yl]phenyl]carbamate], in data set [1], the EC50 lay in the range of 100 to 1000 nM. Further, the recovery at 90 min in data set [3] (setting [4]) came to 55.9%. Besides, the recovery at 90 min in data set [3] (setting [5]) was 92%. Further, in data set [3], the efflux ratio at 90 min came to 1.2, the Papp A→B at 90 min was found to be 1.7 ×10⁻⁶ cm/s and the Papp B→A at 90 min is 2.1 ×10⁻⁶ cm/s.
`CC(C)OC(=O)NC12CCC(c3ncc(-c4ccc(NC(=O)N[C@@H](C)c5ccccc5)cc4S(=O)(=O)NC(C)(C)C)s3)(CC1)CC2` [Ex. 13, isopropyl (S)-(4-(5-(2-(N-(tert-butyl)sulfamoyl)-4-(3-(1-phenylethyl)ureido)phenyl)thiazol-2-yl)bicyclo[2.2.2]octan-1-yl)carbamate]: the EC50 in data set [1] is at most 100 nM; in data set [2], above 1000 nM.
As to `CC(C)OC(=O)NC12CCC(c3ncc(-c4ccc(NC(=O)N[C@H](C)c5ccccc5)cc4S(=O)(=O)NC(C)(C)C)s3)(CC1)CC2` [Ex. 14, isopropyl (R)-(4-(5-(2-(N-(tert-butyl)sulfamoyl)-4-(3-(1-phenylethyl)ureido)phenyl)thiazol-2-yl)bicyclo[2.2.2]octan-1-yl)carbamate], the EC50 is at most 100 nM in data set [1] and above 1000 nM in data set [2].
In data set [1], `CC(C)NC(=O)O[C@H]1CC[C@H](c2ncc(-c3ccc(NC(=O)OC(C)C)cc3S(=O)(=O)NC(C)(C)C)s2)CC1` [Ex. 20, trans-isopropyl N-[3-(tert-butylsulfamoyl)-4-[2-[4-(isopropylcarbamoyloxy)cyclohexyl]thiazol-5-yl]phenyl]carbamate] showed an EC50 above 1000 nM. For the same molecule, in data set [3] (setting [4]), the recovery at 90 min stood at 44.8%. The recovery at 90 min in data set [3] (setting [5]) came to 96.6%. Also, in data set [3], the efflux ratio at 90 min amounted to 1.1, the Papp A→B at 90 min was determined as 9.4 ×10⁻⁶ cm/s and the Papp B→A at 90 min came to 10.4 ×10⁻⁶ cm/s.
Consider `CC(C)NC(=O)O[C@H]1CC[C@H](c2ncc(-c3ccc(NC(=O)NCc4ccccc4)cc3S(=O)(=O)NC(C)(C)C)s2)CC1` [Ex. 21, (1r,4r)-4-(5-(4-(3-benzylureido)-2-(N-(tert-butyl)sulfamoyl)phenyl)thiazol-2-yl)cyclohexyl isopropylcarbamate], for which the 50% effective concentration (EC50) in data set [1] is at most 100 nM. In addition, the recovery at 90 min in data set [3] (setting [4]) amounted to 58.6%. The recovery at 90 min in data set [3] (setting [5]) was 78.3%. For the same molecule, in data set [3], the efflux ratio at 90 min is 3, the Papp A→B at 90 min was determined as 3.6 ×10⁻⁶ cm/s and the Papp B→A at 90 min was found to be 10.7 ×10⁻⁶ cm/s.
`CC(C)OC(=O)N[C@H]1CC[C@H](c2ncc(-c3ccc(NC(=O)NCc4ccccc4F)cc3S(=O)(=O)NC(C)(C)C)s2)CC1` [Ex. 28, isopropyl ((1r,4r)-4-(5-(2-(N-(tert-butyl)sulfamoyl)-4-(3-(2-fluorobenzyl)ureido)phenyl)thiazol-2-yl)cyclohexyl)carbamate] showed a 50% effective concentration (EC50) in data set [1] of at most 100 nM. Besides, in data set [3] (setting [4]), the recovery at 90 min worked out at 66.9%. For the same molecule, the recovery at 90 min in data set [3] (setting [5]) was determined as 81%. In data set [3], the efflux ratio at 90 min worked out at 1.7, the Papp A→B at 90 min was 1.9 ×10⁻⁶ cm/s and the Papp B→A at 90 min is 3.3 ×10⁻⁶ cm/s.
`CC(C)OC(=O)N[C@H]1CC[C@H](c2ncc(-c3ccc(NC(=O)OC[C@H]4CCCN4C)cc3S(=O)(=O)NC(C)(C)C)s2)CC1` [Ex. 34, isopropyl ((1R,4r)-4-(5-(2-(N-(tert-butyl)sulfamoyl)-4-(((((R)-1-methylpyrrolidin-2-yl)methoxy)carbonyl)amino)phenyl)thiazol-2-yl)cyclohexyl)carbamate] displayed an EC50 in data set [1] of 100 to 1000 nM. Moreover, the recovery at 90 min in data set [3] (setting [4]) was found to be 98.2%. Also, in data set [3] (setting [5]), the recovery at 90 min is 96.8%. In data set [3], the efflux ratio at 90 min came to 104, the Papp A→B at 90 min was determined as 0.4 ×10⁻⁶ cm/s and the Papp B→A at 90 min came to 45.2 ×10⁻⁶ cm/s.
In data set [1], `CC(C)OC(=O)N[C@H]1CC[C@H](c2ncc(-c3ccc(NC(=O)OC[C@@H]4CCCN4C)cc3S(=O)(=O)NC(C)(C)C)s2)CC1` [Ex. 35, isopropyl ((1S,4r)-4-(5-(2-(N-(tert-butyl)sulfamoyl)-4-(((((S)-1-methylpyrrolidin-2-yl)methoxy)carbonyl)amino)phenyl)thiazol-2-yl)cyclohexyl)carbamate] came in with an EC50 of 100 to 1000 nM. For the same molecule, the recovery at 90 min in data set [3] (setting [4]) is 98.8%. Further, in data set [3] (setting [5]), the recovery at 90 min was 108%. Also, in data set [3], the efflux ratio at 90 min came to 99.1, the Papp A→B at 90 min was 0.4 ×10⁻⁶ cm/s and the Papp B→A at 90 min is 41 ×10⁻⁶ cm/s.
Turning to `CC(C)OC(=O)Nc1ccc(-c2cnc([C@H]3CC[C@H](NC(=O)OC(C)(C)C)CC3)s2)c(S(=O)(=O)NC(C)(C)C)c1` [Ex. 44, trans-isopropyl N-[4-[2-[4-(tert-butoxycarbonylamino)cyclohexyl]thiazol-5-yl]-3-(tert-butylsulfamoyl)phenyl]carbamate], the EC50 in data set [1] was above 1000 nM. In addition, in data set [3] (setting [4]), the recovery at 90 min was 36.2%. Moreover, in data set [3] (setting [5]), the recovery at 90 min was 69.4%. Further, in data set [3], the efflux ratio at 90 min is 1.3, the Papp A→B at 90 min stood at 3.2 ×10⁻⁶ cm/s and the Papp B→A at 90 min was found to be 4.2 ×10⁻⁶ cm/s.
For the molecule `CC(C)(C)NS(=O)(=O)c1cc(NC(=O)NCc2ccccn2)ccc1-c1cnc(C2CCC(NC(=O)OC(C)(C)C)CC2)s1` (centres unmarked) [Ex. 45, tert-butyl ((1r,4r)-4-(5-(2-(N-(tert-butyl)sulfamoyl)-4-(3-(pyridin-2-ylmethyl)ureido)phenyl)thiazol-2-yl)cyclohexyl)carbamate], the EC50 in data set [1] is at most 100 nM. The recovery at 90 min in data set [3] (setting [4]) was 73.6%. The recovery at 90 min in data set [3] (setting [5]) turned out to be 84.4%. In addition, in data set [3], the efflux ratio at 90 min was 1.4, the Papp A→B at 90 min is 7.6 ×10⁻⁶ cm/s and the Papp B→A at 90 min was 10.8 ×10⁻⁶ cm/s.

The term EC50 denotes the concentration at which the effect is half-maximal. A low value points to a more potent agent.
